# Assays:
# Format in all cases: in vivo
# Conditions in all cases: rated four to five weeks after treatment
# GALIUM APARINE = experiment: Preemergence herbicidal evaluation, GALAP (Galium)
# In short: (§1)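 Values are visual ratings from 0 to 9, judged against a control on stand, vigor, malformation, size, chlorosis and overall appearance. Test compound in aqueous acetone was sprayed onto freshly seeded cups at roughly 0.125 to 0.50 kg per hectare, with scoring four to five weeks later.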
# [1] = system: ORYZA SATIVA, L. TEBONNET; experiment: Postemergence herbicidal evaluation, ORYSAT (Rice, Tebonnet)
# Method: (§2) In the tests, seedling plants are grown in jiffy flats for about two weeks. The test compounds are dispersed in 50/50 acetone/water mixtures containing 0.5% TWEEN®20, a polyoxyethylene sorbitan monolaurate surfactant of Atlas Chemical Industries, in sufficient quantities to provide the equivalent of about 0.125 kg to 0.500 kg per hectare of active compound when applied to the plants through a spray nozzle operating at 40 psi for a predetermined time. After spraying, the plants are placed on greenhouse benches and are cared for in the usual manner, commensurate with conventional greenhouse practices. From four to five weeks after treatment, the seedling plants are examined and rated according to the rating system set forth below. Where more than one test is involved for a given compound, the data are averaged.
# (§3) Results of herbicide evaluation are expressed on a rating scale (0-9). The scale is based upon a visual observation of plant stand, vigor, malformation, size, chlorosis and overall plant appearance as compared with a control.
# [2] = system: ECHINOCHLOA CRUS-GALLI, (L) BEAU; experiment: Preemergence herbicidal evaluation, ECHCG (Barnyardgrass)
# In short: as §1
# [3] = system: ABUTILON THEOPHRASTI, MEDIC.; experiment: Postemergence herbicidal evaluation, ABUTH (Velvetleaf)
# Method: as §2, §3
# CHENOPODIUM ALBUM, L. [4] = experiment: Preemergence herbicidal evaluation, CHEAL (Lambsquarters, Common)
# In short: as §1
# ZEA MAYS L. [5] = experiment: Postemergence herbicidal evaluation, ZEAMX (Corn, Field)
# Method: as §2, §3
# [6] = system: GLYCINE MAX(L)MERR. CV. WILLIAMS; experiment: Preemergence herbicidal evaluation, GLXMAW (Soybean, Williams)
# In short: as §1
# ZEA MAYS L. [7] = experiment: Preemergence herbicidal evaluation, ZEAMX (Corn, Field)
# In short: as §1
# [8] = system: ORYZA SATIVA, L. TEBONNET; experiment: Preemergence herbicidal evaluation, ORYSAT (Rice, Tebonnet)
# In short: as §1
# CASSIA OBTUSIFOLIA, L. [9] = experiment: Preemergence herbicidal evaluation, CASOB (Sicklepod)
# In short: as §1
# IPOMOEA SPP. = experiment: Preemergence herbicidal evaluation, IPOSS (Morningglory Spp.)
# In short: as §1
# CASSIA OBTUSIFOLIA, L. [10] = experiment: Postemergence herbicidal evaluation, CASOB (Sicklepod)
# Method: as §2, §3
# [11] = system: AMBROSIA ARTEMISIIFOLIA, L.; experiment: Postemergence herbicidal evaluation, AMBEL (Ragweed, Common)
# Method: as §2, §3
# [12] = system: SETARIA VIRIDIS, (L) BEAU; experiment: Preemergence herbicidal evaluation, SETVI (Foxtail, Green)
# In short: as §1
# [13] = system: TRITICUM AESTIVUM, CV. APOLLO; experiment: Preemergence herbicidal evaluation, TRZAWO (Wheat, Winter, CV. APOLLO)
# In short: as §1
# [14] = system: ABUTILON THEOPHRASTI, MEDIC.; experiment: Preemergence herbicidal evaluation, ABUTH (Velvetleaf)
# In short: as §1
# [15] = system: ECHINOCHLOA CRUS-GALLI, (L) BEAU; experiment: Postemergence herbicidal evaluation, ECHCG (Barnyardgrass)
# In short: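 Compound is dispersed in 50/50 acetone/water containing 0.5% TWEEN®20 and sprayed at 40 psi onto seedlings about two weeks old, delivering about 0.125–0.500 kg/ha. Injury is scored 0–9 four to five weeks later.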
# CHENOPODIUM ALBUM, L. [16] = experiment: Postemergence herbicidal evaluation, CHEAL (Lambsquarters, Common)
# Method: as §2, §3
# [17] = system: AMBROSIA ARTEMISIIFOLIA, L.; experiment: Preemergence herbicidal evaluation, AMBEL (Ragweed, Common)
# In short: as §1
compound,measurement,setting,value
"CC(C)OC(=O)Cn1c(=O)n(C)c(=O)n(-c2cc(N3C(=O)C4=C(CCCC4)C3=O)c(F)cc2Cl)c1=O [Compound 4, Isopropyl 3-[2-chloro-5-(1-cyclohexene-1,2-dicarboximido)-4-fluorophenyl]tetrahydro-5-methyl-2,4,6-trioxo-s-triazine-1(2H)-acetate]",Herbicide rating (0-9) GALAP,GALIUM APARINE; 0.125 kg/ha,9.0
same,Herbicide rating (0-9) GALAP,GALIUM APARINE; 0.250 kg/ha,9.0
same,Herbicide rating (0-9) GALAP,GALIUM APARINE; 0.500 kg/ha,9.0
same,Herbicide rating (0-9) ORYSAT,[1]; 0.125 kg/ha,4.0
same,Herbicide rating (0-9) ORYSAT,[1]; 0.250 kg/ha,4.0
same,Herbicide rating (0-9) ORYSAT,[1]; 0.500 kg/ha,4.0
same,Herbicide rating (0-9) ECHCG,[2]; 0.125 kg/ha,0.0
same,Herbicide rating (0-9) ECHCG,[2]; 0.250 kg/ha,0.0
same,Herbicide rating (0-9) ECHCG,[2]; 0.500 kg/ha,0.0
same,Herbicide rating (0-9) ABUTH,[3]; 0.125 kg/ha,9.0
same,Herbicide rating (0-9) ABUTH,[3]; 0.250 kg/ha,9.0
same,Herbicide rating (0-9) ABUTH,[3]; 0.500 kg/ha,9.0
same,Herbicide rating (0-9) CHEAL,"CHENOPODIUM ALBUM, L. [4]; 0.125 kg/ha",9.0
same,Herbicide rating (0-9) CHEAL,"CHENOPODIUM ALBUM, L. [4]; 0.250 kg/ha",9.0
same,Herbicide rating (0-9) CHEAL,"CHENOPODIUM ALBUM, L. [4]; 0.500 kg/ha",9.0
same,Herbicide rating (0-9) ZEAMX,ZEA MAYS L. [5]; 0.125 kg/ha,4.5
same,Herbicide rating (0-9) ZEAMX,ZEA MAYS L. [5]; 0.250 kg/ha,4.5
same,Herbicide rating (0-9) ZEAMX,ZEA MAYS L. [5]; 0.500 kg/ha,4.5
same,Herbicide rating (0-9) GLXMAW,[6]; 0.125 kg/ha,0.0
same,Herbicide rating (0-9) GLXMAW,[6]; 0.250 kg/ha,0.0
same,Herbicide rating (0-9) GLXMAW,[6]; 0.500 kg/ha,0.0
"COC(=O)Cn1c(=O)n(C)c(=O)n(-c2cc(N3C(=O)C4=C(CCCC4)C3=O)ccc2F)c1=O [Compound 5, Methyl 3-[5-(1-cyclohexene-1,2-dicarbox-imido)-2-fluorophenyl]tetrahydro-5-methyl-2,4,6-trioxo-s-triazine-1(2H)-acetate]",Herbicide rating (0-9) GALAP,GALIUM APARINE; 0.125 kg/ha,0.0
same,Herbicide rating (0-9) GALAP,GALIUM APARINE; 0.250 kg/ha,0.0
same,Herbicide rating (0-9) GALAP,GALIUM APARINE; 0.500 kg/ha,0.0
same,Herbicide rating (0-9) ZEAMX,ZEA MAYS L. [7]; 0.125 kg/ha,0.0
same,Herbicide rating (0-9) ZEAMX,ZEA MAYS L. [7]; 0.250 kg/ha,0.0
same,Herbicide rating (0-9) ZEAMX,ZEA MAYS L. [7]; 0.500 kg/ha,0.0
same,Herbicide rating (0-9) ORYSAT,[8]; 0.125 kg/ha,0.0
same,Herbicide rating (0-9) ORYSAT,[8]; 0.250 kg/ha,0.0
same,Herbicide rating (0-9) ORYSAT,[8]; 0.500 kg/ha,0.0
same,Herbicide rating (0-9) CASOB,"CASSIA OBTUSIFOLIA, L. [9]; 0.125 kg/ha",0.0
same,Herbicide rating (0-9) CASOB,"CASSIA OBTUSIFOLIA, L. [9]; 0.250 kg/ha",0.0
same,Herbicide rating (0-9) CASOB,"CASSIA OBTUSIFOLIA, L. [9]; 0.500 kg/ha",0.0
same,Herbicide rating (0-9) IPOSS,IPOMOEA SPP.; 0.125 kg/ha,0.0
same,Herbicide rating (0-9) IPOSS,IPOMOEA SPP.; 0.250 kg/ha,0.0
same,Herbicide rating (0-9) IPOSS,IPOMOEA SPP.; 0.500 kg/ha,0.0
same,Herbicide rating (0-9) CASOB,"CASSIA OBTUSIFOLIA, L. [10]; 0.125 kg/ha",0.0
same,Herbicide rating (0-9) CASOB,"CASSIA OBTUSIFOLIA, L. [10]; 0.250 kg/ha",0.0
same,Herbicide rating (0-9) CASOB,"CASSIA OBTUSIFOLIA, L. [10]; 0.500 kg/ha",0.0
same,Herbicide rating (0-9) ECHCG,[2]; 0.125 kg/ha,0.0
same,Herbicide rating (0-9) ECHCG,[2]; 0.250 kg/ha,0.0
same,Herbicide rating (0-9) ECHCG,[2]; 0.500 kg/ha,0.0
same,Herbicide rating (0-9) AMBEL,[11]; 0.125 kg/ha,2.0
same,Herbicide rating (0-9) AMBEL,[11]; 0.250 kg/ha,2.0
same,Herbicide rating (0-9) AMBEL,[11]; 0.500 kg/ha,2.0
same,Herbicide rating (0-9) CHEAL,"CHENOPODIUM ALBUM, L. [4]; 0.125 kg/ha",0.0
same,Herbicide rating (0-9) CHEAL,"CHENOPODIUM ALBUM, L. [4]; 0.250 kg/ha",0.0
same,Herbicide rating (0-9) CHEAL,"CHENOPODIUM ALBUM, L. [4]; 0.500 kg/ha",0.0
same,Herbicide rating (0-9) SETVI,[12]; 0.125 kg/ha,0.0
same,Herbicide rating (0-9) SETVI,[12]; 0.250 kg/ha,0.0
same,Herbicide rating (0-9) SETVI,[12]; 0.500 kg/ha,0.0
same,Herbicide rating (0-9) TRZAWO,[13]; 0.125 kg/ha,0.0
same,Herbicide rating (0-9) TRZAWO,[13]; 0.250 kg/ha,0.0
same,Herbicide rating (0-9) TRZAWO,[13]; 0.500 kg/ha,0.0
same,Herbicide rating (0-9) ABUTH,[14]; 0.125 kg/ha,0.0
same,Herbicide rating (0-9) ABUTH,[14]; 0.250 kg/ha,0.0
same,Herbicide rating (0-9) ABUTH,[14]; 0.500 kg/ha,0.0
same,Herbicide rating (0-9) ECHCG,[15]; 0.125 kg/ha,0.0
same,Herbicide rating (0-9) ECHCG,[15]; 0.250 kg/ha,0.0
same,Herbicide rating (0-9) ECHCG,[15]; 0.500 kg/ha,0.0
same,Herbicide rating (0-9) CHEAL,"CHENOPODIUM ALBUM, L. [16]; 0.125 kg/ha",0.0
same,Herbicide rating (0-9) CHEAL,"CHENOPODIUM ALBUM, L. [16]; 0.250 kg/ha",0.0
same,Herbicide rating (0-9) CHEAL,"CHENOPODIUM ALBUM, L. [16]; 0.500 kg/ha",0.0
same,Herbicide rating (0-9) GLXMAW,[6]; 0.125 kg/ha,0.0
same,Herbicide rating (0-9) GLXMAW,[6]; 0.250 kg/ha,0.0
same,Herbicide rating (0-9) GLXMAW,[6]; 0.500 kg/ha,0.0
same,Herbicide rating (0-9) AMBEL,[17]; 0.125 kg/ha,0.0
same,Herbicide rating (0-9) AMBEL,[17]; 0.250 kg/ha,0.0
same,Herbicide rating (0-9) AMBEL,[17]; 0.500 kg/ha,0.0
